Laboratory results reported in patent US10202351B2, “Pyrazolyl derivatives as pest control agents” (BAYER ANIMAL HEALTH GMBH, priority 2015, dated 2019).

How the values were obtained:
Tetranychus urticae = Tetranychus urticae spray test, OP-resistant; type: in vivo; details: all stages on bean leaf discs, after 6 days
Procedure: Solvent: 78.0 parts by weight of acetone • • 1.5 parts by weight of dimethylformamide Emulsifier: alkylaryl polyglycol ether […] To produce further test concentrations, the formulation is diluted with emulsifier-containing water. Discs of bean leaves (Phaseolus vulgaris) infested with all stages of the greenhouse red spider mite (Tetranychus urticae) are sprayed with an active ingredient formulation of the desired concentration.

Musca domestica = Musca domestica test; type: in vivo; details: application rate 100 ppm, adult houseflies, kill after 2 days
Procedure: (§1) Solvent: dimethyl sulfoxide
To produce a suitable preparation of active compound, 10 mg of active compound are mixed with 0.5 ml of dimethyl sulfoxide, and the concentrate is diluted with water to the desired concentration.
Vessels containing a sponge treated with sugar solution and the active ingredient formulation of the desired concentration are populated with 10 adult houseflies (Musca domestica)).
After 2 days, the kill in % is determined. 100% means that all of the flies have been killed; 0% means that none of the flies have been killed.

[1] = system: cattle ticks (Boophilus microplus) Parkhurst strain, SP-resistant; assay: Boophilus microplus dip test; type: in vivo; details: application rate 100 ppm, after 7 days, laying of fertile eggs
Procedure: Test animals: cattle ticks (Boophilus microplus) Parkhurst strain, SP-resistant
as §1
10 mg of active ingredient are dissolved in 0.5 ml of dimethyl sulfoxide. To produce a suitable formulation, the active ingredient solution is diluted with water to the concentration desired in each case.
This active ingredient formulation is pipetted into tubes. 8-10 engorged adult female cattle ticks (Boophilus microplus) are transferred into a further tube with holes. The tube is immersed into the active ingredient formulation, and all the ticks are completely wetted. After the liquid has run out, the ticks are transferred on filter disks into plastic dishes and stored in a climate-controlled room.
Efficacy is assessed after 7 days by laying of fertile eggs. Eggs which are not visibly fertile are stored in a climate-controlled cabinet until the larvae hatch after about 42 days. An efficacy of 100% means that none of the ticks has laid any fertile eggs; 0% means that all the eggs are fertile.

Ctenocephalides felis [2] = assay: Ctenocephalides felis in vitro contact test with adult cat fleas; type: in vivo; details: application rate 5 μg/cm^2 (500 g/ha), after 48 h, dead or moribund fleas
Procedure: After the solvent has evaporated off, the tubes are populated with 5-10 adult cat fleas (Ctenocephalides felis), sealed with a perforated plastic lid and incubated in a horizontal position at room temperature and ambient humidity. After 48 h, efficacy is determined. To this end, the tubes are stood upright and the fleas are knocked to the base of the tube. Fleas which remain motionless at the base or move in an uncoordinated manner are considered to be dead or moribund.

Lucilia cuprina = Lucilia cuprina test; type: in vivo; details: application rate 100 ppm, L1 larvae, kill after 2 days
In short: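 About 20 L1 larvae were placed in vessels of minced horsemeat containing compound, formulated in dimethyl sulfoxide and diluted with water to the test concentration. Kill (%) was scored after 2 days; 100% means all larvae dead, 0% none.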

Boophilus microplus = Boophilus microplus injection test; type: in vivo; details: application rate 20 μg/animal, after 7 days, laying of fertile eggs
Procedure: Solvent: dimethyl sulfoxide […] The animals are transferred into dishes and kept in a climate-controlled room. Efficacy is assessed after 7 days by laying of fertile eggs. Eggs which are not visibly fertile are stored in a climate-controlled cabinet until the larvae hatch after about 42 days.

Ctenocephalides felis [3] = assay: Ctenocephalides felis oral test; type: in vivo; details: application rate 100 ppm in citrated cattle blood, kill after 2 days
Source text: Solvent: dimethyl sulfoxide […] Dilution with citrated cattle blood gives the desired concentration. About 20 unfed adult cat fleas (Ctenocephalides felis) are placed into a chamber which is closed at the top and bottom with gauze. A metal cylinder whose bottom end is closed with parafilm is placed onto the chamber. The cylinder contains the blood/active ingredient formulation, which can be imbibed by the fleas through the parafilm membrane.

Phaedon cochleariae = Phaedon cochleariae spray test; type: in vivo; details: larvae on Chinese cabbage leaf discs, after 7 days
Procedure: (§2) Solvent: 78.0 parts by weight of acetone • • 1.5 parts by weight of dimethylformamide Emulsifier: alkylaryl polyglycol ether […] To produce further test concentrations, the formulation is diluted with emulsifier-containing water. Discs of Chinese cabbage leaves (Brassica pekinensis) are sprayed with an active ingredient formulation of the desired concentration and, after drying, populated with larvae of the mustard beetle (Phaedon cochleariae).

Rhipicephalus sanguineus = Rhipicephalus sanguineus in vitro contact test with adult brown dog ticks; type: in vivo; details: after 48 h, dead or moribund ticks
Procedure: After the solvent has evaporated off, the tubes are populated with 5-10 adult dog ticks (Rhipicephalus sanguineus), sealed with a perforated plastic lid and incubated in a horizontal position in the dark at room temperature and ambient humidity. After 48 h, efficacy is determined. To this end, the ticks are knocked to the base of the tube and incubated on a hotplate at 45-50° C. for not more than 5 min. Ticks which remain motionless on the base or move in such an uncoordinated manner that they are unable to deliberately avoid the heat by climbing upwards are considered to be dead or moribund.

Spodoptera frugiperda = Spodoptera frugiperda spray test; type: in vivo; details: caterpillars on maize leaf discs, after 7 days
Procedure: as §2, with “Leaf discs” for “Discs”, “maize (Zea mays)” for “Chinese cabbage leaves (Brassica pekinensis)”, “compound” for “ingredient”, “caterpillars” for “larvae”, “armyworm (Spodoptera frugiperda).” for “mustard beetle (Phaedon cochleariae).”

[4] = logP determination by HPLC on reversed-phase column (EEC Directive 79/831 Annex V.A8); type: physicochemical
[5] = application rate 5 μg/cm^2 (500 g/ha)
[6] = Table 1, HPLC C18, acetonitrile/water with formic acid

lgP [4, 6]	lgP ([4]; synthesis example)	SMILES	efficacy (Tetranychus urticae; application rate 100 g/ha) [%]	efficacy (Musca domestica) [%]	efficacy [1] [%]	efficacy (Ctenocephalides felis [2]) [%]	efficacy (Lucilia cuprina) [%]	efficacy (Boophilus microplus) [%]	efficacy (Ctenocephalides felis [3]) [%]	efficacy (Phaedon cochleariae; application rate 100 g/ha) [%]	efficacy (Rhipicephalus sanguineus; [5]) [%]	efficacy (Spodoptera frugiperda; application rate 100 g/ha) [%]	efficacy (Tetranychus urticae; application rate 500 g/ha) [%]	efficacy (Phaedon cochleariae; application rate 500 g/ha) [%]	efficacy (Spodoptera frugiperda; application rate 500 g/ha) [%]	efficacy (Rhipicephalus sanguineus; application rate 1 μg/cm^2 (100 g/ha)) [%]
		O=C(Nc1ccc(F)c(-c2cnn(-c3c(Br)cc(C(F)(C(F)(F)F)C(F)(F)F)cc3C(F)(F)F)c2)c1)c1ccncc1 [Example 2-13]	90	100	100	80	100	100	100	100	80	100				
		O=C(Nc1ccc(F)c(-c2cnn(-c3c(Br)cc(C(F)(C(F)(F)F)C(F)(F)F)cc3C(F)(F)F)c2)c1)c1cocn1 [Example 2-14]		90		100	90	100	100	100	80	100				
lgP 4.41		Cc1cc(C(F)(C(F)(F)F)C(F)(F)F)cc(C)c1-n1cc(-c2ccc(Cl)c(NC(=O)c3ccncc3)c2)cn1 [Example 2]	100	100	100	100	100	100	100		100	100	100	100	100	
lgP 5.57	5.57	Cc1cc(C(F)(C(F)(F)F)C(F)(F)F)cc(C)c1-n1cc(-c2ccc(Cl)c(NC(=O)c3ccc(F)cc3)c2)cn1 [Example 4, N-[2-chloro-5-[1-[2,6-dimethyl-4-[1,2,2,2-tetrafluoro-1-(trifluoromethyl)ethyl]phenyl]pyrazol-4-yl]phenyl]-4-fluorobenzamide]	100				100	100	100		100	100	90	100	100	
lgP 5.07		Cc1cc(C(F)(C(F)(F)F)C(F)(F)F)cc(C)c1-n1cc(-c2ccc(F)c(NC(=O)c3ccc(F)cc3)c2)cn1 [Example 5]	100	80			100	100	90		80	100	100	100	100	
lgP 4.84		Cc1cc(C(F)(C(F)(F)F)C(F)(F)F)cc(C)c1-n1cc(-c2ccc(F)c(NC(=O)c3ccc(F)cc3)c2F)cn1 [Example 7]	100			100	80	100		100	80	83				
lgP 5.14		Cc1cc(C(F)(C(F)(F)F)C(F)(F)F)cc(C)c1-n1cc(-c2cnc(Cl)c(NC(=O)c3ccc(F)cc3)c2)cn1 [Example 11]	90	100			100	100	100	100	80	100				
lgP 3.97		Cc1cc(C(F)(C(F)(F)F)C(F)(F)F)cc(C)c1-n1cc(-c2cnc(Cl)c(NC(=O)c3ccncc3)c2)cn1 [Example 12]	100	100		100	90	100	100	100	80	100				
lgP 5.04		Cc1cc(C(F)(C(F)(F)F)C(F)(F)F)cc(C)c1-n1cc(-c2ccc(F)c(NC(=O)c3ccncn3)c2)cn1 [Example 16]		100			95	100	100	100	80	100				
		Cc1cc(C(F)(C(F)(F)F)C(F)(F)F)cc(C(F)(F)F)c1-n1cc(-c2ccc(F)c(NC(=O)c3ccsc3)c2)cn1 [Example 31]	100	100	90		100	100	100	100		100				
		Cc1cc(C(F)(C(F)(F)F)C(F)(F)F)cc(C(F)(F)F)c1-n1cc(-c2ccc(F)c(NC(=O)c3ccc(C#N)cc3)c2)cn1 [Example 33]	90	90		100	100	100	100	100	80	100				
		Cc1cc(C(F)(C(F)(F)F)C(F)(F)F)cc(C(F)(F)F)c1-n1cc(-c2ccc(F)c(NC(=O)c3ccncc3)c2)cn1 [Example 50]	100	100		100	100	100	100	100	80	100				
		Cc1cc(C(F)(C(F)(F)F)C(F)(F)F)cc(C(F)(F)F)c1-n1cc(-c2ccc(F)c(NC(=O)C3CSC3)c2)cn1 [Example 66]	100	100			100	100	100	100	100	100				

SMILES	lgP [4, 6]	lgP ([4]; synthesis example)	efficacy (Tetranychus urticae; application rate 100 g/ha) [%]	efficacy (Musca domestica) [%]	efficacy [1] [%]	efficacy (Ctenocephalides felis [2]) [%]	efficacy (Lucilia cuprina) [%]	efficacy (Boophilus microplus) [%]	efficacy (Ctenocephalides felis [3]) [%]	efficacy (Phaedon cochleariae; application rate 100 g/ha) [%]	efficacy (Rhipicephalus sanguineus; [5]) [%]	efficacy (Spodoptera frugiperda; application rate 100 g/ha) [%]	efficacy (Tetranychus urticae; application rate 500 g/ha) [%]	efficacy (Phaedon cochleariae; application rate 500 g/ha) [%]	efficacy (Spodoptera frugiperda; application rate 500 g/ha) [%]	efficacy (Rhipicephalus sanguineus; application rate 1 μg/cm^2 (100 g/ha)) [%]
Cc1cc(C(F)(C(F)(F)F)C(F)(F)F)cc(C)c1-n1cc(-c2ccc(F)c(NC(=O)c3ccncc3)c2)cn1 [Example 6]	lgP 4.04		100	100		100	100	100	100	100		100				100
